Data published in patent US8765773B2, “Substituted hydroxamic acids and uses thereof” (Millennium Pharmaceuticals, Inc., priority 2010, dated 2014).

Molecular target: T1, purified human HDAC6 (Homo sapiens, UniProt Q9UBN7)
T1 construct: purchased BPS Bioscience 5006
T1 sequence (Q9UBN7 1-1215): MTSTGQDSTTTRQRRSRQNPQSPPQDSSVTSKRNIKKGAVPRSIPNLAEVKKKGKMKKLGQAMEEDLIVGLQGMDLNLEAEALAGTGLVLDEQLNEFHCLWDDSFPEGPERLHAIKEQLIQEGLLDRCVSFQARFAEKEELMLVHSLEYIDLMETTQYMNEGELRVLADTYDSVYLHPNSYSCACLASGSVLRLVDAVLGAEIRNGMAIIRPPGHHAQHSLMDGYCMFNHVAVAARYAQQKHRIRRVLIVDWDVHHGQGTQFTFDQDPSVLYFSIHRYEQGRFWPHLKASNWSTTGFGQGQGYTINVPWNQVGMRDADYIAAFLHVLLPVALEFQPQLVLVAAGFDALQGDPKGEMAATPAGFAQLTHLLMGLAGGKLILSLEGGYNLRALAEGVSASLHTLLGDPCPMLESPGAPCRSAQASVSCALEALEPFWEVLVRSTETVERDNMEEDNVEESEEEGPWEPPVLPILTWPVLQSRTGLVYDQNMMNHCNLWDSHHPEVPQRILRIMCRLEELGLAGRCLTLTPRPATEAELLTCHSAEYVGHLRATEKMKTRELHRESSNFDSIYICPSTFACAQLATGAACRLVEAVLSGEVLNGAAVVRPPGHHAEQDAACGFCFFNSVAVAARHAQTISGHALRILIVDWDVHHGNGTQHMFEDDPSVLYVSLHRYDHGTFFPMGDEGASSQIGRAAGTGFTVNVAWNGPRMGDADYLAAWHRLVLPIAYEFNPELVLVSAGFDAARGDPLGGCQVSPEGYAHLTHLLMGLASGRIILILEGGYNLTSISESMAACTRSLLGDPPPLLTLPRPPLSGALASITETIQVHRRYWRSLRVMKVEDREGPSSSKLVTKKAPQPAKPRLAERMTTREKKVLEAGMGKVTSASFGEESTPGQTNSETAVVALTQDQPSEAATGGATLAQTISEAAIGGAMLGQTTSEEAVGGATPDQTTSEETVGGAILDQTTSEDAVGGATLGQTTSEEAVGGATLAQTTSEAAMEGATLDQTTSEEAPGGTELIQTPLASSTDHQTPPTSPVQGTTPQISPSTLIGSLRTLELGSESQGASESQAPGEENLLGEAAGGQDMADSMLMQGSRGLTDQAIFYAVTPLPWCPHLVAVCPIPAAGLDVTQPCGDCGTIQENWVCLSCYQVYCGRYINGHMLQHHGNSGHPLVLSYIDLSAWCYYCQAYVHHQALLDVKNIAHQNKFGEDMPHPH
Test: HDAC6 Enzyme Assay
Assay type: biochemical
Conditions: read-out: Percent Inhibition; for inhibition at 0.412 µM: compound concentration 0.412 μM; for inhibition at 0.37 µM: compound concentration 0.37 μM
Procedure, shortened: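 Readout is AMC fluorescence (Ex 340 nm, Em 460 nm) after trypsin cleavage of the deacetylated Ac-Arg-Gly-Lys(Ac)-AMC product. Reaction: purified human HDAC6, compound or vehicle, 1 hour, 30° C, quenched by trichostatin A. Single-concentration percent inhibition or IC50 calculated versus DMSO-treated samples.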

Structure (SMILES) | inhibition at 0.412 µM | inhibition at 0.37 µM
CC1(C(=O)Nc2cccc(Cn3ccc4ccc(C(=O)NO)cc4c3=O)c2)CCNCC1 [Compound I-215, N-hydroxy-2-(3-{[(4-methylpiperidin-4-yl)carbonyl]amino}benzyl)-1-oxo-1,2-dihydroisoquinoline-7-carboxamide] | – | 100%
CS(=O)(=O)c1cccc(CCn2cnc3ccc(C(=O)NO)cc3c2=O)c1 [Compound I-216, N-hydroxy-3-{2-[3-(methylsulfonyl)phenyl]ethyl}-4-oxo-3,4-dihydroquinazoline-6-carboxamide] | – | 85.7%
O=C(NO)c1ccc2ccn(Cc3cc(C(F)(F)F)ccc3C(F)(F)F)c(=O)c2c1 [Compound I-217, 2-[2,5-bis(trifluoromethyl)benzyl]-N-hydroxy-1-oxo-1,2-dihydroisoquinoline-7-carboxamide] | 99.4% | –
CCOCCn1ccc2ccc(C(=O)NO)cc2c1=O [Compound I-218, 2-(2-ethoxyethyl)-N-hydroxy-1-oxo-1,2-dihydroisoquinoline-7-carboxamide] | 90.4% | –
O=C(NO)c1ccc2ncn(CCc3cccc(-c4ccncc4)c3)c(=O)c2c1 [Compound I-220, N-hydroxy-4-oxo-3-[2-(3-pyridin-4-ylphenyl)ethyl]-3,4-dihydroquinazoline-6-carboxamide] | – | 98.3%
O=C(NO)c1ccc2ccn(Cc3ccc(F)cc3F)c(=O)c2c1 [Compound I-222, 2-(2,4-difluorobenzyl)-N-hydroxy-1-oxo-1,2-dihydroisoquinoline-7-carboxamide] | 94.6% | –
O=C(NO)c1ccc2ccn(Cc3ccc(-n4cncn4)cc3)c(=O)c2c1 [Compound I-223, N-hydroxy-1-oxo-2-[4-(1H-1,2,4-triazol-1-yl)benzyl]-1,2-dihydroisoquinoline-7-carboxamide] | 94.9% | –
CCOCCn1cnc2ccc(C(=O)NO)cc2c1=O [Compound I-226, 3-(2-ethoxyethyl)-N-hydroxy-4-oxo-3,4-dihydroquinazoline-6-carboxamide] | 84.5% | –
COCCOCCn1ccc2ccc(C(=O)NO)cc2c1=O [Compound I-228, N-hydroxy-2-[2-(2-methoxyethoxy)ethyl]-1-oxo-1,2-dihydroisoquinoline-7-carboxamide] | 86.9% | –
COc1ccc(N(CCn2ccc3ccc(C(=O)NO)cc3c2=O)Cc2ccc(Cl)cc2)cc1 [Compound I-229, 2-{2-[(4-chlorobenzyl)(4-methoxyphenyl)amino]ethyl}-N-hydroxy-1-oxo-1,2-dihydroisoquinoline-7-carboxamide] | 83.2% | –
CC(C)(C)C(=O)Nc1ncccc1-c1cccc(Cn2cnc3ccc(C(=O)NO)cc3c2=O)c1 [Compound I-230, 3-(3-{2-[(2,2-dimethylpropanoyl)amino]pyridin-3-yl}benzyl)-N-hydroxy-4-oxo-3,4-dihydroquinazoline-6-carboxamide] | – | 92.4%
COc1ccc2ccc(OCCCn3ccc4ccc(C(=O)NO)cc4c3=O)cc2c1 [Compound I-231, N-hydroxy-2-{3-[(7-methoxy-2-naphthyl)oxy]propyl}-1-oxo-1,2-dihydroisoquinoline-7-carboxamide] | 94.8% | –
O=C(NO)c1ccc2cc[nH]c(=O)c2c1 [Compound I-232, N-hydroxy-1-oxo-1,2-dihydroisoquinoline-7-carboxamide] | 70.9% | –
O=C(NO)c1ccc2ccn(CCc3ccc(Cl)cc3)c(=O)c2c1 [Compound I-236, 2-[2-(4-chlorophenyl)ethyl]-N-hydroxy-1-oxo-1,2-dihydroisoquinoline-7-carboxamide] | 96.2% | –
O=C(NO)c1ccc2c(=O)n(Cc3ccc(C(F)(F)F)cc3)c(-c3cnc(N4CCOCC4)s3)nc2c1 [Compound I-237, N-hydroxy-2-(2-morpholin-4-yl-1,3-thiazol-5-yl)-4-oxo-3-[4-(trifluoromethyl)benzyl]-3,4-dihydroquinazoline-7-carboxamide] | – | 88%
CC(C)(C)OC(=O)N1CCC(NC(=O)c2nc3cc(C(=O)NO)ccc3c(=O)[nH]2)CC1 [Compound I-241, tert-butyl 4-[({7-[(hydroxyamino)carbonyl]-4-oxo-3,4-dihydroquinazolin-2-yl}carbonyl)amino]piperidine-1-carboxylate] | 29.8% | –
Cn1cnc2cc(C(=O)NO)ccc2c1=O [Compound I-242, N-hydroxy-3-methyl-4-oxo-3,4-dihydroquinazoline-7-carboxamide] | 68.8% | –
Cn1c(NCCc2ccc(Cl)cc2)nc2ccc(C(=O)NO)cc2c1=O [Compound I-243, 2-{[2-(4-chlorophenyl)ethyl]amino}-N-hydroxy-3-methyl-4-oxo-3,4-dihydroquinazoline-6-carboxamide] | 60.8% | –
CN(C)S(=O)(=O)c1cccc(-c2cccc(Cn3cnc4ccc(C(=O)NO)cc4c3=O)c2)c1 [Compound I-244, 3-({3′-[(dimethylamino)sulfonyl]biphenyl-3-yl}methyl)-N-hydroxy-4-oxo-3,4-dihydroquinazoline-6-carboxamide] | – | 89.4%

Second part, the compound after the results:

inhibition at 0.412 µM | inhibition at 0.37 µM | Structure (SMILES)
65.8% | – | CC(C)c1nc2cc(C(=O)NO)ccc2c(=O)[nH]1 [Compound I-214, N-hydroxy-2-isopropyl-4-oxo-3,4-dihydroquinazoline-7-carboxamide]
94.1% | – | O=C(NO)c1ccc2ccn(Cc3ccccc3)c(=O)c2c1 [Compound I-219, 2-benzyl-N-hydroxy-1-oxo-1,2-dihydroisoquinoline-7-carboxamide]
88.1% | – | COc1ccc(-n2ccc3ccc(C(=O)NO)cc3c2=O)cc1 [Compound I-221, N-hydroxy-2-(4-methoxyphenyl)-1-oxo-1,2-dihydroisoquinoline-7-carboxamide]
– | 96.3% | CC(c1ccccc1C(F)(F)F)n1ccc2ccc(C(=O)NO)cc2c1=O (stereo not shown) [Compound I-224, N-hydroxy-1-oxo-2-{1-[2-(trifluoromethyl)phenyl]ethyl}-1,2-dihydroisoquinoline-7-carboxamide]
40.3% | – | COc1ccc2ccc(OCc3nc4cc(C(=O)NO)ccc4c(=O)[nH]3)cc2c1 [Compound I-225, N-hydroxy-2-{[(7-methoxy-2-naphthyl)oxy]methyl}-4-oxo-3,4-dihydroquinazoline-7-carboxamide]
93.7% | – | O=C(NO)c1ccc2ccn(CCCOc3ccccc3Cl)c(=O)c2c1 [Compound I-227, 2-[3-(2-chlorophenoxy)propyl]-N-hydroxy-1-oxo-1,2-dihydroisoquinoline-7-carboxamide]
91.1% | – | O=C(NO)c1ccc2c(=O)[nH]c(COc3ccccc3-n3cccc3)nc2c1 [Compound I-233, N-hydroxy-4-oxo-2-{[2-(1H-pyrrol-1-yl)phenoxy]methyl}-3,4-dihydroquinazoline-7-carboxamide]
98.6% | – | Cc1nn(-c2ccccc2)nc1Cn1ccc2ccc(C(=O)NO)cc2c1=O [Compound I-234, N-hydroxy-2-[(5-methyl-2-phenyl-2H-1,2,3-triazol-4-yl)methyl]-1-oxo-1,2-dihydroisoquinoline-7-carboxamide]
87.5% | – | O=C(NO)c1ccc2ccn(CCCOc3ccc(Oc4ccccc4)cc3)c(=O)c2c1 [Compound I-235, N-hydroxy-1-oxo-2-[3-(4-phenoxyphenoxy)propyl]-1,2-dihydroisoquinoline-7-carboxamide]
86.2% | – | O=C(NO)c1ccc2c(=O)n(Cc3ccccc3)c(NCc3ccc(Cl)cc3)nc2c1 [Compound I-238, 3-benzyl-2-[(4-chlorobenzyl)amino]-N-hydroxy-4-oxo-3,4-dihydroquinazoline-7-carboxamide]
93.8% | – | O=C(NO)c1ccc2ncn(CCCc3ccccc3)c(=O)c2c1 [Compound I-239, N-hydroxy-4-oxo-3-(3-phenylpropyl)-3,4-dihydroquinazoline-6-carboxamide]
96% | – | COc1ccccc1OCCCn1ccc2ccc(C(=O)NO)cc2c1=O [Compound I-240, N-hydroxy-2-[3-(2-methoxyphenoxy)propyl]-1-oxo-1,2-dihydroisoquinoline-7-carboxamide]
